Reference: US20150202192A1, “PHARMACEUTICAL COMPOSITION FOR TREATING GASTRO-OESOPHAGEAL REFLUX DISEASE” (priority 2012, published 2015)

Experiments:
[1] = Clinical study in GERD patients: hydrogen breathing test for bacterial overgrowth syndrome; type: in vivo, human; details: n = 10
Description: (§1) The study included 100 patients with endoscopically negative GERD form, i.e. men and women aged 19 to 50 years old infected with H. pilori.
(§2) All the patients received treatment on a similar pattern: they received the composition of a proton pump inhibitor and a prebiotic 2 times a day for 56 days.
Before and after treatment course (on Day 56) all the patients were subjected to hydrogen breathing test on the presence of bacterial overgrowth syndrome.

[2] = Clinical study in GERD patients: symptom severity (pyrosis, regurgitation) on Likert scale; type: in vivo, human; details: n = 10; for medium term arresting pyrosis / medium term arresting regurgitation: oral, 2 times a day for 56 days
[3] = Clinical study in GERD patients: quality of life by Visual Analog Scale; type: in vivo, human; details: n = 10
Helicobacter pylori = test: Clinical study in GERD patients: biopsy of antrum and gastric corpus for Helicobacter pylori (cytology/histology, urease test); type: in vivo, human; details: n = 10
Description: as §1, §2
In all patients, before treatment and in 4 weeks (1 month) after completion of the treatment course the biopsy of the antrum and gastric corpus was made for the presence of Helicobacter pylori. For HP diagnostics the following was used:
1. Cytological and histological biopsy of mucosa of the antrum and gastric corpus obtained in gastroscopy.
2. Urease test, in which the mucous membrane biopsy material obtained from the antrum and the gastric corpus were examined for the presence of urease, an enzyme specific for Helicobacter pylori.
(§3) Repeated visits were made in 2 and 5 weeks after the treatment start; during the visits treatment efficacy and safety were determined, besides, it was determined if the therapy could be continued. In 56 days (8 weeks) after the therapy start, the patient came to a visit, wherein efficacy and safety of treatment was evaluated and the treatment was terminated. In 11 weeks after the treatment start, the final visit was made which included esophagogastroduodenoscopy with byopsy of the antrum and the gastric corpus for HP detection.

[4] = Clinical study in GERD patients: tolerability (diarrhea, flatulence, AE necessitating discontinuation); type: in vivo, human; details: n = 10
Description: as §1
All the patients were divided into 10 groups of 10 persons each, of whom 5 groups (I-V) were experimental ones, while 5 groups (VI-X) were control ones.
In the experimental groups patients received orally the claimed dosage forms based on PPI and a prebiotic; Group I—a composition which contained omeprazole and lactulose as active components; Group II—a composition which contained pantoprazole and lactitol as active components; Group III—a composition which contained lansoprazole and inulin as active components; Group IV—a composition which contained rabeprazole and fructooligosaccharides as active components; Group V—a composition which contained esomeprazole and lactulose as active components.
In the control groups the patients received PPI monotherapy orally: Group VI—omeprazole; Group VII—pantoprazole; Group VIII—lansoprazole; Group IX—rabeprazole and Group X—esomeprazole.
as §2
The patients kept their diaries in which they made daily records of the time when they took drugs, recorded disease symptom severity according to Likert scale, severity of meteorism, defecation frequency, etc.
as §3

intestinal bacteria = details: humans, 3 g daily dose; cited from earlier work
[5] = after treatment (oral, 2 times a day for 56 days)
[6] = after treatment, biopsy after completion of the 56-day course

Compound | Presence bacterial overgrowth syndrome ([1]; after treatment (Day 56)) | Presence bacterial overgrowth syndrome ([1]; before treatment) | Intensity pyrosis on scale Likert [2, 5] | Intensity regurgitation on scale Likert [2, 5] | Intensity pyrosis on scale Likert ([2]; before treatment) | Intensity regurgitation on scale Likert ([2]; before treatment) | medium term arresting pyrosis [2] | medium term arresting regurgitation [2] | Quality of life no VAC ([3]; after treatment (56 days)) | Quality of life no VAC ([3]; before treatment) | release Helicobacter pylori in the antrum (Helicobacter pylori; [6]) | release Helicobacter pylori in the stomach (Helicobacter pylori; [6]) | release Helicobacter pylori in the antrum (Helicobacter pylori; before treatment) | release Helicobacter pylori in the stomach (Helicobacter pylori; before treatment) | AE, necessitating discontinuation of therapy ([4]; after treatment (56 days)) | Presence diarrhea ([4]; after treatment (56 days)) | Presence flatulence ([4]; after treatment (56 days)) | Presence diarrhea ([4]; before treatment) | Presence flatulence ([4]; before treatment) | further results
COCCCOc1ccnc(C[S+]([O-])c2nc3ccccc3[nH]2)c1C (stereo not shown) [group IX, rabeprazole] | 40% | 10% | 1.2 ± 0.6 ball | 1.1 ± 0.3 ball | 3.6 ± 0.7 ball | 3.5 ± 1.1 ball | 7.8 ± 3.5 days | 7.5 ± 3.4 days | 87.3 ± 19.5 MM | 58.5 ± 20.2 MM | 100% | 80% | 100% | 20% | 0% | 20% | 50% | 0% | 20% | –
COc1ccc2[nH]c([S+]([O-])Cc3ncc(C)c(OC)c3C)nc2c1 (stereo not shown) [group VI, omeprazole] | 50% | 10% | 1.2 ± 0.6 ball | 1.1 ± 0.3 ball | 3.6 ± 0.8 ball | 3.5 ± 1.2 ball | 7.8 ± 3.5 days | 7.5 ± 3.4 days | 87.6 ± 21.2 MM | 58.1 ± 18.9 MM | 100% | 70% | 100% | 20% | 0% | 20% | 60% | 0% | 20% | –
Cc1c(OCC(F)(F)F)ccnc1C[S+]([O-])c1nc2ccccc2[nH]1 (stereo not shown) [group VIII, lansoprazole] | 50% | 10% | 1.1 ± 0.5 ball | 1.1 ± 0.2 ball | 3.4 ± 0.7 ball | 3.6 ± 1.1 ball | 7.8 ± 3.3 days | 7.7 ± 3.2 days | 84.2 ± 21.5 MM | 57.4 ± 17.5 MM | 100% | 70% | 100% | 20% | 0% | 20% | 60% | 0% | 10% | –
COc1ccc2nc([S@@+]([O-])Cc3ncc(C)c(OC)c3C)[nH]c2c1 [group X, esomeprazole] | 50% | 10% | 1.1 ± 0.2 ball | 1.3 ± 0.1 ball | 3.5 ± 0.9 ball | 3.6 ± 1.1 ball | 7.7 ± 3.1 days | 7.2 ± 3.1 days | 87.6 ± 21.2 MM | 58.1 ± 18.9 MM | 100% | 80% | 100% | 20% | 0% | 20% | 60% | 0% | 10% | –
OC[C@H]1O[C@@H](O[C@@H]2[C@@H](CO)OC(O)(CO)[C@H]2O)[C@H](O)[C@@H](O)[C@H]1O (mixture of isomers) [lactulose] | – | – | – | – | – | – | – | – | – | – | – | – | – | – | – | – | – | – | – | number of Bifidobacteria and Lactobacillus (intestinal bacteria): significant increase; number of Clostridium perfringens, Bacteroides, Enterobacteriaceae, and Streptococcus (intestinal bacteria): decrease
COc1ccnc(C[S+]([O-])c2nc3ccc(OC(F)F)cc3[nH]2)c1OC (stereo not shown) [group VII, pantoprazole] | 40% | 10% | 1.0 ± 0.4 ball | 1.2 ± 0.3 ball | 3.3 ± 0.5 ball | 3.4 ± 1.1 ball | 7.5 ± 3.1 days | 7.6 ± 3.4 days | 87.6 ± 21.2 MM | 58.1 ± 18.9 MM | 100% | 80% | 100% | 20% | 0% | 20% | 50% | 0% | 10% | –
